Measurements taken from patent publication US20250041254A1, “USE OF SODIUM FORMATE IN PREPARATION OF AN ANTI-INFECTIVE DRUG” (priority 2022, published 2025).

How the values were obtained:
Format in all cases: cell-based
[1] = test system: clinically multidrug-resistant and carbapenem-resistant Escherichia coli strain No. 28; experiment: Live bacterial count / survival rate of CR Escherichia coli strain No. 28 (antibiotic concentration, sodium formate concentration, time, other antibiotics)
Protocol: Single bacterial colonies were selected and inoculated into a 5 mL LB medium, cultivated at 37° C. (clinically multidrug-resistant and carbapenem-resistant or multidrug-resistant but carbapenem-sensitive Escherichia coli, clinically multidrug-resistant and carbapenem-resistant or multidrug-resistant but carbapenem-sensitive Klebsiella pneumoniae, clinically multidrug-resistant and carbapenem-resistant or multidrug-resistant but carbapenem-sensitive Pseudomonas aeruginosa, methicillin-resistant Staphylococcus aureus, and sensitive bacteria for each type of bacteria) or 30° C. (Edwardsiella tarda and Vibrio) at 200 rpm for 16-24 hours; an appropriate amount of a bacterial solution was taken for centrifugation at 8000 rpm for 5 min to collect bacterial cells, the supernatant was removed, and the bacterial cells were washed with an equal volume of 0.85% normal saline for 3 times and suspended in M9 medium (containing 10 mM proline, 2 mM MgSO4. 0.1 mM CaCl2)), and a base bacterial solution was cultured with M9 to an OD600 concentration of 0.6 and divided into 5 mL test tubes for later use.
Taking clinically multidrug-resistant and carbapenem-resistant Escherichia coli strain No. 28 as an example, adding different concentrations of sodium formate or different concentrations of antibiotics and under different treating times, the effect of improving the sensitivity of multidrug-resistant Escherichia coli to micronomicin was studied in depth.
To understand how sodium formate increased the sensitivity of bacteria to micronomicin at different antibiotic concentrations, on the basis of exogenous addition of 20 mM sodium formate, 30-480 μg/mL (several concentrations of) micronomicin was added to treat bacteria. No antibiotic addition was used as a control, and live bacterial counts were performed to compare the survival rates of bacteria with and without the addition of sodium formate at the same antibiotic concentration after 10 hours.
To investigate whether there was a gradient effect between the concentration of sodium formate and the bactericidal efficiency, as well as its optimal bactericidal concentration, different concentrations of sodium formate (0.625 mM-40 mM) were added on the basis of 60 μg/mL micronomicin addition for 10 hours, then live bacteria were counted, and the survival rate was calculated according to a formula as the following: the number of live bacteria with different concentrations of sodium formate addition/the number of live bacteria without sodium formate addition×100%.
Further research was conducted on adding 20 mM sodium formate and 60 μg/mL micronomicin and counting live bacteria at different time, and the relationship between its bactericidal efficiency and time was observed.
To investigate whether the addition of sodium formate is effective to antibiotics other than micronomicin in multidrug-resistant Escherichia coli, a clinical multidrug-resistant and carbapenem-resistant Escherichia coli sample No. 28 was prepared according to Embodiment 1, and 20 mM sodium formate and different kinds of antibiotics were added, respectively. After 10 hours of action, the number of live bacteria was counted, and the survival rate of the bacteria with different antibiotics was calculated after adding sodium formate.

[2] = test system: clinical multidrug-resistant and carbapenem-resistant Escherichia coli (CR-EC); experiment: Survival rate (dot plate counting) of clinical multidrug-resistant and carbapenem-resistant Escherichia coli, 18 strains; settings: 10 hours
Protocol: (§1) Single bacterial colonies were selected and inoculated into a 5 mL LB medium, cultivated at 37° C. (clinically multidrug-resistant and carbapenem-resistant or multidrug-resistant but carbapenem-sensitive Escherichia coli, clinically multidrug-resistant and carbapenem-resistant or multidrug-resistant but carbapenem-sensitive Klebsiella pneumoniae, clinically multidrug-resistant and carbapenem-resistant or multidrug-resistant but carbapenem-sensitive Pseudomonas aeruginosa, methicillin-resistant Staphylococcus aureus, and sensitive bacteria for each type of bacteria) or 30° C. […]
(§2) Thirty-six clinical multidrug-resistant Escherichia coli samples were prepared according to Embodiment 1, of which 18 were clinical multidrug-resistant and carbapenem-resistant Escherichia coli (abbreviated as CR-EC) and 18 were clinical multidrug-resistant but carbapenem-sensitive Escherichia coli (abbreviated as MDR-EC). […] The number of bacteria was counted. […]

[3] = test system: clinical multidrug-resistant but carbapenem-sensitive Escherichia coli (MDR-EC); experiment: Survival rate (dot plate counting) of clinical multidrug-resistant but carbapenem-sensitive Escherichia coli, 18 strains; settings: 10 hours
Protocol: as §1, §2

| SMILES | number of live bacteria ([1]; 60 μg/mL micronomicin only, 1-4 hours) | survival rate ([1]; 60 μg/mL micronomicin only, 6 hours) [%] | survival rate ([1]; 60 μg/mL micronomicin only, 16 hours) [%] | survival rate ([1]; 60 μg/mL micronomicin only, 24 hours) [%] | survival rate ([1]; micronomicin 30 μg/mL without sodium formate, 10 hours) [%] | survival rate ([1]; micronomicin 60 μg/mL without sodium formate, 10 hours) [%] | survival rate ([1]; micronomicin 120 μg/mL without sodium formate, 10 hours) [%] | survival rate ([1]; micronomicin 240 μg/mL without sodium formate, 10 hours) [%] | survival rate ([1]; micronomicin 480 μg/mL without sodium formate, 10 hours) [%] | bacterial survival rate ([1]; sodium formate gradient experiment, control group: 60 μg/mL micronomicin without sodium formate, 10 hours) [%] | survival rate ([2]; 60 μg/mL micronomicin only, all 18 strains) | survival rate ([3]; 60 μg/mL micronomicin only, remaining 8 strains) | killing effect on bacteria ([2]; 20 mM sodium formate alone) | killing effect on bacteria ([3]; 20 mM sodium formate alone) |
| --- | --- | --- | --- | --- | --- | --- | --- | --- | --- | --- | --- | --- | --- | --- |
| CNC[C@@H]1CC[C@@H](N)[C@@H](O[C@H]2[C@H](O)[C@@H](O[C@H]3OC[C@](C)(O)[C@H](NC)[C@H]3O)[C@H](N)C[C@@H]2N)O1 [micronomicin] | remained basically unchanged | 87.96 | 72.72 | 34.64 | 100 | 77.37 | 35.87 | 29.77 | 29.01 | 72.3 | 67-97% | less than 60% |  |  |
| O=C[O-].[Na+] [sodium formate] |  |  |  |  |  |  |  |  |  |  |  |  | no killing effect | no killing effect |
